The results in this text go back to patent US20250066423A1, “SESTRIN-MAPK COMPLEX INHIBITORS” (Sentcell Ltd, priority 2021, published 2025).

One assay has as its system H1N1 PR8/54. In kind it is in vivo, mice. Conditions: old mice, vaccination with DOS, H1N1 PR8/54.
Assay [1] deals with sMAC signalling (sestrin 1, 2 and 3 expression, AMPK and MAPK phosphorylation). Briefly: Immunoblot of sMAC signalling in CD4+ T cells treated with DOS compounds (heat-map). Type of assay: cell-based, human. On the procedure:
CD4+ T cells were isolated from PBMCs from healthy donors, treated with DOS compounds for 4 hours and harvested for immunoblot analysis. The heat-map of Sestrin 1, Sestrin 2, Sestrin 3, p-mTOR1, p-JNK, p-AMPK, p-ERK1/2, and p-p38, represents the mean of three to nine experiments. Histone 3 was used as a control.
• 1. CD4+ cells were separated from PBMC using appropriate microbeads kit (Miltenyi) • 2. Cells were resuspended in whole RPMI medium and plated in the 24-multiwell plate • 3. Then activated for 4 hrs with DOS compounds • 4. Cells were then harvested, washed with PBS and resuspended in lysis buffer (RIPA with […]) • 5. The cell-lysis mix was incubated for 20 mins on ice • 6. Samples were centrifuged for 20 mins at the max speed • 7. The supernatant was collected and Lemmli buffer+β-Mercaptoethanol was added • 8. Samples were then boiled for 5 mins at 95° C. • 9. Samples were loaded on the polyacrylamide gel and left to run in TRIS-Glycine-SDS running buffer • 10. Once the run was completed the proteins were transferred from the gel to the nitrocellulose membrane by using the Trans-Blot machine (Biorad) • 11. Membrane was washed with 0.1% Tween-TBS buffer and blocked in 5% non-fat milk for 1 hr • 12. Followed incubation with the primary antibody o.n. • 13. The day after, the membrane was washed with 0.1% Tween-TBS buffer for three times for at least 30 mins each • 14. Secondary antibody was then added for 1h • 15. The membrane was the washed with 0.1% Tween-TBS buffer for three times for at least 30 mins each • 16. The signal was developed using ECL solution
This was shown by downregulation of sestrin 1, 2 and 3 expression, and AMPK and MAPK phosphorylation.
(In general: A western blot detects proteins with antibodies after separation by electrophoresis.)

Assay [2] deals with Breast cancer cell line (MCF-7). Briefly: Cancer cell death by FACS live-dead staining. In kind it is cell-based. The settings on record: 20 uM, 48 hours. On the procedure:
(§1) (Left) Immortalized paediatric neuroblastoma cell line (sh-sy5y) was treated at different concentrations of DOS46L and DOS144D (from 1 uM to 20 uM) for 48 hours, then analysed by FACS with live-dead staining. (Right) Breast cancer cell line (MCF-7) was treated at the fixed concentration of DOS46L and DOS144D (20 uM) for 48 hours, then analysed by FACS with live-dead dye staining. UN depicts untreated controls. Results of triplicate cultures are shown.

Assay [3] deals with paediatric neuroblastoma cell line (sh-sy5y). Briefly: Cancer cell death by FACS live-dead staining. Type of assay: cell-based. Conditions: 1 uM to 20 uM, 48 hours. On the procedure:
as §1
A general note: In flow cytometry, cells or beads pass a laser one at a time.

In a further assay the target is T1, Sestrin 2 (Homo sapiens, UniProt P58004).
T1 sequence (P58004 1-480): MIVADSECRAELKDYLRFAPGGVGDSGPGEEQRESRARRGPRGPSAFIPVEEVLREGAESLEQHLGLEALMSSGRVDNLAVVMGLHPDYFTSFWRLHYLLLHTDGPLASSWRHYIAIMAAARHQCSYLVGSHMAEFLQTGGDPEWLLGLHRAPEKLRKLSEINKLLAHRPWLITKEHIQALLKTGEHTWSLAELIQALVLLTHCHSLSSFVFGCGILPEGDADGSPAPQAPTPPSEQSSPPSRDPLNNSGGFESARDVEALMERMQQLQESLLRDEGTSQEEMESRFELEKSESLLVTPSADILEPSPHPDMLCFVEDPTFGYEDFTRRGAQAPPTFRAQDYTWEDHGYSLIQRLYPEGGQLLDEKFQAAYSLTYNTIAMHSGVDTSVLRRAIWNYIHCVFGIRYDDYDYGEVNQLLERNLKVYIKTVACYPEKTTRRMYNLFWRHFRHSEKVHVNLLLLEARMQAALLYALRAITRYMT
Briefly: Streptavidin pull-down of biotinylated DOS46L with flag recombinant sestrins. Type of assay: binding. Conditions: streptavidin immunoprecipitation. On the procedure: (§2) (A) Biotinylated DOS46L was mixed with flag recombinant Sestrins, immunoprecipitated with streptavidin and immunoblotted with flag Sestrins. […] Representative images from three experiments are shown. […] (D) DOS46L binds to the entire sMAC complex in CD4 T cells. CD4+ T cells were isolated from PBMCs from healthy donors and treated with biotinylated DOS46L compound (10 uM) for 4 hours. Cells were harvested for immunoprecipitation analysis.
(§3) The selective interaction was also studied using the cutting-edge […] algorithm for molecular docking predictions based on the deposited sestrin 2 crystal structure.

The target in another assay is T2, sestrin 1 (Homo sapiens, UniProt Q9Y6P5).
T2 sequence (Q9Y6P5 1-492): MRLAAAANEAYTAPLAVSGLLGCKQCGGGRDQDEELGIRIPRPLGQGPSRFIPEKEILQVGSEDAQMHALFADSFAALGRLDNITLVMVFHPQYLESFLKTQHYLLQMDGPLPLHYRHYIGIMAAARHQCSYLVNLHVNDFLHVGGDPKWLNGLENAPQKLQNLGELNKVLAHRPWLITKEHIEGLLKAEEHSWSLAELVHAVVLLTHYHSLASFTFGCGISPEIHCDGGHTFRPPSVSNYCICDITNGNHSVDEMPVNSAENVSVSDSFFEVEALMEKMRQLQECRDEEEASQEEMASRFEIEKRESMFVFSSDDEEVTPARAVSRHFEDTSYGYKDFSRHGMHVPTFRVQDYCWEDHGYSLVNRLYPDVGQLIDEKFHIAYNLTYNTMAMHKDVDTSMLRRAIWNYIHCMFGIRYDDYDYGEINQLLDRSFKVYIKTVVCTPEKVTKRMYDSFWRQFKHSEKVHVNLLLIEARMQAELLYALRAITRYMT
The description is as above. Type of assay: binding. Conditions: streptavidin immunoprecipitation. On the procedure:
as §2, §3

In assay [4] the target is T3, GATOR complex (WDR59 and mTOR) (Homo sapiens, UniProt P42345+Q6PJI9).
T3 construct: endogenous in cells; host or cells: primary CD4+ T cells from PBMCs of healthy donors
Nature of the assay: Pull-down of biotinylated DOS46L from CD4+ T cells. In kind it is binding. The settings on record: 10 uM, 4 hours. As for the experimental part:
as §2
(§4) • 1. Cell pellet was lysed with 100 μL of denaturing lysis buffer • 2. Then mixed well by vortexing vigorously for 2-3 sec at maximum speed. • 3. Samples were then boiled at 95° C. for 5 min. • 4. Samples were then diluted 900 μl of non-denaturing lysis buffer and mixed gently. • 5. Cell lysates were then passed through a needle attached to a 1 ml syringe for 5-10 times or were sonicated. • 6. Incubated then on ice for 5 min • 7. Samples were pre-cleaned by spinning at the max speed at 4° C. for 20 min. • 8. Supernatants were collected in a new tube • 9. 7 ul (5 μg) of SESN2 (abcam) primary anti-body was added directly to the supernatant and incubated on the rota o.n. at 4° C. • 10. 200 ul of protein A/G beads were washed 4-5 times in IP buffer and blocked then o.n. in IP buffer with BSA and left on the rota at 4° C. • 11. The day after, 50 ul of protein A/G beads were added to the sample and incubated for 3 hrs on the rota at 4° C. • 12. […]

Assay [5] deals with T4, sMAC (sestrin 1, 2, and 3, AMPK and MAPKs) (Homo sapiens, UniProt P58004+Q9Y6P5).
T4 construct: endogenous in cells; host or cells: primary CD4+ T cells from PBMCs of healthy donors
T4 sequence (Q9Y6P5 1-492): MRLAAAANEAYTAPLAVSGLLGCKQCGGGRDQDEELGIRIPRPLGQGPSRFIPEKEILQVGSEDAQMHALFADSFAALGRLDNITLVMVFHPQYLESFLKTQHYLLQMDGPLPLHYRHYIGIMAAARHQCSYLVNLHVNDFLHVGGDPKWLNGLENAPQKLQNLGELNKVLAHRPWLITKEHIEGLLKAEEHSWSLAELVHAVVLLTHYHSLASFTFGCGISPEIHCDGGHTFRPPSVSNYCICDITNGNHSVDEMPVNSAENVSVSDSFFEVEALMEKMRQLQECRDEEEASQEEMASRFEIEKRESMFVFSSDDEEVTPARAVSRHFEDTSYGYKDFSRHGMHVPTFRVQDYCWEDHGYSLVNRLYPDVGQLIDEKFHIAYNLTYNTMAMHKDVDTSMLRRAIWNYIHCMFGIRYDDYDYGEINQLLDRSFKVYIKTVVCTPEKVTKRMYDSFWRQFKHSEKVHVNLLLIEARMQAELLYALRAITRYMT
T4 sequence (P58004 1-480): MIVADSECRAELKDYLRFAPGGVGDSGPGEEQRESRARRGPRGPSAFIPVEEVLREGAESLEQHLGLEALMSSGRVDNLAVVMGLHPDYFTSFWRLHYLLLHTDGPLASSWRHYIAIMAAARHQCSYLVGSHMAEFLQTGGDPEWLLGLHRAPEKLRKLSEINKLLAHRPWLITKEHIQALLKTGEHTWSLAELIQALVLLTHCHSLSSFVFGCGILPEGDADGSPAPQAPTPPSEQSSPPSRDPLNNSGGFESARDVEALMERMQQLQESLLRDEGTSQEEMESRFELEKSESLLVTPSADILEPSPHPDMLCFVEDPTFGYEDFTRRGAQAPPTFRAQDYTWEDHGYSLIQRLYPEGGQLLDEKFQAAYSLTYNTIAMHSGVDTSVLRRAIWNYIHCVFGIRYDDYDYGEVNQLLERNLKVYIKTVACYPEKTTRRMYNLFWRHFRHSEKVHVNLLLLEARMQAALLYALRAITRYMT
T4 sequence (P58005 1-492 partner): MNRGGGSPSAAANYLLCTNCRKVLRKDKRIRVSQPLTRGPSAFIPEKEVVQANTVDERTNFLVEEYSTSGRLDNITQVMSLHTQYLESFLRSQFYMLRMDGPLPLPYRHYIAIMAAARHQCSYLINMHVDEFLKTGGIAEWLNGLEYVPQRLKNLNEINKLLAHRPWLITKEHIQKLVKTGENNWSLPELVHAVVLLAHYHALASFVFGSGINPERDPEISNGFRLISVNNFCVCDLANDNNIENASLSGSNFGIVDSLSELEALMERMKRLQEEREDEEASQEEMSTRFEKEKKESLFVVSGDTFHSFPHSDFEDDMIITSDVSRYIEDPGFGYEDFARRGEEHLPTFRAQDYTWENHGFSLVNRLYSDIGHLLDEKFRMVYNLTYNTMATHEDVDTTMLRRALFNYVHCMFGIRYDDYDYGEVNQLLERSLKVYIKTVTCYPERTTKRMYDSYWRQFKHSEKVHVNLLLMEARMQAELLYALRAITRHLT
Briefly: Pull-down of biotinylated DOS46L from CD4+ T cells. Type of assay: binding. Conditions: 10 uM, 4 hours. As for the experimental part: as §2, §4

The target in assay [6] is T5, flag recombinant Sestrin 3 (UniProt P58005 1-492, limits assumed).
T5 construct: also called flagged sestrin 3; not shown: flag tag
T5 sequence (looked up): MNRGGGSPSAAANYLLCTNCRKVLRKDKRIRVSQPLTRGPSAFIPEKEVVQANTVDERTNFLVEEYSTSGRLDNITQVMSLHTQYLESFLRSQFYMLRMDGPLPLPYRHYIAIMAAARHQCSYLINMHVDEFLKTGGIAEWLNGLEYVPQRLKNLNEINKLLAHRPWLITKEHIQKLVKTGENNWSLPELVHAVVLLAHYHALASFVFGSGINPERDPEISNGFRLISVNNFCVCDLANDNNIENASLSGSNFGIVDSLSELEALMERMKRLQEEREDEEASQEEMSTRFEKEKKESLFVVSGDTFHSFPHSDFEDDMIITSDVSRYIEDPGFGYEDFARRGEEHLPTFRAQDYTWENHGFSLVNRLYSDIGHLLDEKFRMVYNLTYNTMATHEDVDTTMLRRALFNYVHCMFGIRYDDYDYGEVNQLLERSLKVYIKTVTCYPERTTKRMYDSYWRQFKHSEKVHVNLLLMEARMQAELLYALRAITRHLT
Nature of the assay: recombinant sestrins, precipitation and immunoblot (FIG. 8B-C).

T3 sequence (Q6PJI9 whole entry, other chains not shown): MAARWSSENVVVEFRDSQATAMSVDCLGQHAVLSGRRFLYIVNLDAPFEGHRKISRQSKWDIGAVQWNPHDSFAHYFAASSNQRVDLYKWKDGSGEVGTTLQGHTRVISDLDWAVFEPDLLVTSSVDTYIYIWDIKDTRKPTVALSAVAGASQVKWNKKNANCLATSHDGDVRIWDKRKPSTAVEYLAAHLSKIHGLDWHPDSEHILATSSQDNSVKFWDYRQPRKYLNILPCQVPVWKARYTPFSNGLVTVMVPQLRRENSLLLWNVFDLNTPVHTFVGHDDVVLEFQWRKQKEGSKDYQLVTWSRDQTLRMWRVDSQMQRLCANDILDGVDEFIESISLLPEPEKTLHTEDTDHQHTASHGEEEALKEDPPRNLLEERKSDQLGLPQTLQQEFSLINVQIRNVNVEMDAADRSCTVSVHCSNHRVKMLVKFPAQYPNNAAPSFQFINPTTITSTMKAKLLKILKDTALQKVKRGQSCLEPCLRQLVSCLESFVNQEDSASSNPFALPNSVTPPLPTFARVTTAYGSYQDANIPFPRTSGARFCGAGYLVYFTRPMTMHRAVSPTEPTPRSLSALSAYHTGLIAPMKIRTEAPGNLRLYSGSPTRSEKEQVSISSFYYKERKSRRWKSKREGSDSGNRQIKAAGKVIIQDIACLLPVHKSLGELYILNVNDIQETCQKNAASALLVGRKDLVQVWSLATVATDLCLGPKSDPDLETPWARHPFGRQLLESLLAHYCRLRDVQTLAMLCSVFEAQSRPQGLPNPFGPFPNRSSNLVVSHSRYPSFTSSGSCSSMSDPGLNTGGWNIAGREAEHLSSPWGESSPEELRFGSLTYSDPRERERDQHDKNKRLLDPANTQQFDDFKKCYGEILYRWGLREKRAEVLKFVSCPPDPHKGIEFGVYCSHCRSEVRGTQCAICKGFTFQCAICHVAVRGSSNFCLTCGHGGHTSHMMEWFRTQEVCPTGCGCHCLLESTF

For `CC(C)C[C@H]1NC(=O)[C@@H](CC(C)C)NC(=O)[C@@H](Cc2c[nH]c3ccccc23)NC(=O)[C@@H](CCC(=O)O)NC(=O)CNC1=O` [DOS144D], the “survival data, comparison of compounds” value with H1N1 PR8/54 is recorded as “similar”. For the same molecule, the “effectiveness at sMAC inactivation among all of the DOS compounds tested” value in assay [1] is listed as “most effective”. In addition, the “sestrins inhibited (pan or selective inhibitor)” value in assay [1] (CD4+ T cells, 4 hours, FIG. 5 heat-map) is “inhibit all three sestrins”. The cancer cell death result in [2] and in [3] was “induction of cancer cell death” each time.
Regarding “biotinylated DOS46L: biotinylated variant of DOS46L used for pull-down (cyclo(AFIPV); also: biotinylated, site not given here)”, in the assay with Sestrin 2, the “direct binding to sestrin 2” value is listed as “directly binds”. Besides, in the assay with sestrin 1, the “direct binding to sestrin 1” value was “directly binds”. Besides, in [4], the “association with elements of the GATOR complex in cells” value is reported as “not with elements of the GATOR complex”. The “association with sMAC in cells” value in assay [5] was “found in the sMAC”.

B1: flag recombinant Sestrin 1 (other, UniProt Q9Y6P5 1-492, looked up)
chain: MRLAAAANEAYTAPLAVSGLLGCKQCGGGRDQDEELGIRIPRPLGQGPSRFIPEKEILQVGSEDAQMHALFADSFAALGRLDNITLVMVFHPQYLESFLKTQHYLLQMDGPLPLHYRHYIGIMAAARHQCSYLVNLHVNDFLHVGGDPKWLNGLENAPQKLQNLGELNKVLAHRPWLITKEHIEGLLKAEEHSWSLAELVHAVVLLTHYHSLASFTFGCGISPEIHCDGGHTFRPPSVSNYCICDITNGNHSVDEMPVNSAENVSVSDSFFEVEALMEKMRQLQECRDEEEASQEEMASRFEIEKRESMFVFSSDDEEVTPARAVSRHFEDTSYGYKDFSRHGMHVPTFRVQDYCWEDHGYSLVNRLYPDVGQLIDEKFHIAYNLTYNTMAMHKDVDTSMLRRAIWNYIHCMFGIRYDDYDYGEINQLLDRSFKVYIKTVVCTPEKVTKRMYDSFWRQFKHSEKVHVNLLLIEARMQAELLYALRAITRYMT
notes: also called flagged sestrin 1; not shown: flag tag
In the case of B1, in assay [6], the binding result is given as “no binding”.
